Source: patent US20110071225A1, “METHOD FOR OBTAINING A SEQUOYITOL-CONTAINING EXTRACT FROM GENUS NEPHROLEPIS AND USES THEREOF” (GUANGZHOU WELMAN NEW DRUG R&D CO., LTD., priority 2008, published 2011)

Key:
[1] = test system: elevated level of blood glucose induced by alloxan in mice; assay: Effect on the elevated level of blood glucose induced by alloxan in mice; format: in vivo; conditions: 75 mg/kg via gavage, 7 days
Description: 80 male mice weighed 22˜25 g were used. 20 mice were randomly taken as the blank group. Others were injected intravenously with alloxan via caudal vein at a dose of 65 mg/kg body weight, and then modeled according to established methods. The mice were divided into 3 groups according to their level of blood glucose, in which 2 groups were administered via gavage with 60 mg/kg of the Nephrolepis auriculata extract, 75 mg/kg of phenformin (positive control) respectively for consecutive 7 days, in a volume of 0.1 ml/10 g body weight. The same volume of distilled water was administered to the blank group and the control group. Blood glucose was determined using glucose oxidase method.

[2] = sequoyitol isolated from Taxus chinensis; cited from earlier work
diabetes models = conditions: sequoyitol isolated from Taxus chinensis; cited from earlier work
Solubility in water = format: physicochemical
Description: Sequoyitol was dissolved in water and sterilized by filtration. Solutions for injection were prepared according to the operation procedure of solutions for injection. Powder for injection was prepared according to the operation procedure of lyophilized powder for injection.

Solubility in water (Solubility in water)	SMILES	Decrease of hyperglycemia induced by alloxan vs control group [1]	Toxicity [2]	Absorption of glucose (diabetes models)	Breakdown of hepatic glycogen (diabetes models)	High glycemia in diabetes models (diabetes models)
–	[H]/N=C(/N)N/C(=N/[H])NCCc1ccccc1 [phenformin]	152.8 mg/dL	–	–	–	–
well soluble	CO[C@H]1[C@H](O)[C@@H](O)[C@@H](O)[C@@H](O)[C@@H]1O [Sequoyitol, sequoyitol]	–	very low toxicity	inhibits	inhibits	remarkably decreases
